Data reported in PubChem BioAssay (NCI).
Values joined by “and” are separate entries in the source; they are usually repeats but may differ in a detail not shown here. Equal values may be shown once.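 1) Cells in 96-well plates. 2) Compound, 48 h, 5 concentrations. 3) Linear interpolation between surrounding doses. 4) Unreached endpoint = highest concentration. The concentration for 50% growth inhibition is given as GI50. The concentration for full growth arrest is given as TGI.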

What was measured:
Test in all cases: inhibition of tumour cell growth, NCI panel, 48 h
U251 CNS = test system: U251 CNS
HCT-116 colon = test system: HCT-116 colon
NCI/ADR-RES ovarian = test system: NCI/ADR-RES ovarian
A549 NSCLC = test system: A549 NSCLC
A498 renal = test system: A498 renal
OVCAR-8 ovarian = test system: OVCAR-8 ovarian
UACC-257 melanoma = test system: UACC-257 melanoma
RXF 393 renal = test system: RXF 393 renal
SNB-75 CNS = test system: SNB-75 CNS
T-47D breast = test system: T-47D breast

Compound	GI50 (U251 CNS)	TGI (U251 CNS)	GI50 (HCT-116 colon)	TGI (HCT-116 colon)	GI50 (NCI/ADR-RES ovarian)	TGI (NCI/ADR-RES ovarian)	GI50 (A549 NSCLC)	TGI (A549 NSCLC)	GI50 (A498 renal) [µM]	TGI (A498 renal) [µM]	GI50 (OVCAR-8 ovarian)	TGI (OVCAR-8 ovarian)	GI50 (UACC-257 melanoma)	TGI (UACC-257 melanoma)	GI50 (RXF 393 renal)	TGI (RXF 393 renal)	GI50 (SNB-75 CNS)	TGI (SNB-75 CNS)	GI50 (T-47D breast)	TGI (T-47D breast)
O=C1c2ccccc2C(=Cc2ccccc2)c2ccccc21	2.97 µM	9.23 µM	1.89 µM	5.13 µM	1.6 µM	6.62 µM	3.22 µM	9.97 µM	2.3	9.52	2.19 µM	5.26 µM	5.22 µM	23.9 µM	3.06 µM	9.63 µM	2.34 µM	7.45 µM	2.68 µM	9.65 µM
C/C(=C\C1=C(Cl)C(=O)c2ccccc2C1=O)C(=O)O	15.8 µM	29.4 µM	28.4 µM	> 100 µM	21.1 µM	46.8 µM	21.9 µM	43 µM	21.9	36.3	22.6 µM	45.6 µM	–	–	18.3 µM	33.1 µM	21.5 µM	35.9 µM	15.3 µM	48.7 µM
Cn1cc(C2=C(c3cccnc3)C(=O)NC2=O)c2ccccc21	18.8 µM	> 25 µM	15 µM	> 25 µM	> 25 µM	> 25 µM	> 25 µM	> 25 µM	9.03	> 22.9	> 25 µM	> 25 µM	> 25 µM	> 25 µM	5.63 µM	> 17.9 µM	0.882 µM	> 25 µM	14.6 µM	> 25 µM
O=S(=O)(O)c1ccc(-c2nnc(-c3ccccn3)nc2-c2ccc(S(=O)(=O)O)o2)o1	–	> 100 µM	–	> 100 µM	–	> 100 µM	–	> 100 µM	–	> 100	–	> 100 µM	–	–	–	> 100 µM	–	> 100 µM	–	> 100 µM
COc1cnc2c(c1)C(=O)c1c-2n(CCCN2CCC(O)CC2)c(=O)c2cc(F)ccc12	0.0814 µM	0.453 µM	0.0895 µM	0.591 µM	0.303 µM	1.98 µM	0.0899 µM	0.32 µM	0.198	1.23	0.173 µM	1.16 µM	0.296 µM	1.81 µM	0.217 µM	0.838 µM	0.252 µM	2.59 µM	0.0996 µM	0.86 µM
CC(=O)OCC(=O)O[C@@H]1C[C@]2(C(C)C)O[C@@]1(C)[C@@H]1CC[C@@H](C)[C@H]1[C@@H]2OC(=O)/C=C/c1ccccc1	16.7 µM	50.3 µM	16.1 µM	> 100 µM	0.143 µM	27.5 µM	18.5 µM	> 100 µM	< 0.0399	0.472	0.0747 µM	> 56.3 µM	23.6 µM	87.4 µM	0.211 µM	2.01 µM	13.2 µM	58.4 µM	8.81 µM	> 97.2 µM
O=P(NC12CC3CC(CC(C3)C1)C2)(N1CC1)N1CC1	–	> 100 µM	–	> 100 µM	–	> 100 µM	–	> 100 µM	–	> 100	–	> 100 µM	–	> 100 µM	–	74.3 µM	–	> 100 µM	–	> 100 µM
O=C([O][Hg][CH2]C1COC([CH2][Hg][O]C(=O)c2ccccc2)CO1)c1ccccc1 (stereo unspecified)	4.46 µM and 13.5 µM	10.8 µM and 27 µM	4.24 µM and 1.39 µM	14.7 µM and 2.68 µM	10.9 µM and 1.74 µM	28.9 µM and 4.76 µM	19.3 µM and 16.4 µM	37.6 µM and 33.8 µM	18.8	33.1	10.7 µM and 1.92 µM	25.4 µM and 4.42 µM	14.8 µM and 1.98 µM	28.1 µM and 3.98 µM	8.88 µM and 1.45 µM	22.8 µM and 2.76 µM	17.6 µM and 4.32 µM	31.9 µM and 23.4 µM	1.88 µM and 1.7 µM	4.06 µM and 4.17 µM
O=C(CF)N(O)c1ccc(/C=C/c2ccccc2)cc1	1.82 µM	> 60 µM	0.805 µM	6.63 µM	2.52 µM	> 100 µM	1.17 µM	> 100 µM	0.694	2.27	2.77 µM	> 96.2 µM	1.67 µM	5.59 µM	3.13 µM	25.1 µM	3.41 µM	31.9 µM	1.06 µM	> 34.1 µM
Cn1nnnc1N/N=C/c1ccccc1	–	> 10 µM	–	> 10 µM	–	> 10 µM	–	> 10 µM	–	–	–	> 10 µM	–	> 10 µM	–	> 10 µM	–	> 10 µM	–	> 10 µM
CCOC(=O)C1=C(C)NC2SC(=O)/C(=C\c3ccccc3O)N2C1c1ccccc1 (stereo unspecified)	21.5 µM	49.6 µM	23.6 µM	63.6 µM	23.3 µM	60.3 µM	27.2 µM	> 100 µM	11.1	33.9	24.6 µM	61.6 µM	42.4 µM	> 100 µM	19 µM	46.9 µM	20.4 µM	70.8 µM	16.1 µM	51.7 µM
O=C(Nc1ccc(Cl)cc1F)c1cc(I)ccc1O	1.64 µM	21.2 µM	1.22 µM	2.87 µM	2.02 µM	8.68 µM	2.88 µM	> 100 µM	0.269	0.846	2.02 µM	9.96 µM	0.812 µM	6.64 µM	1.57 µM	5.2 µM	0.187 µM	2.82 µM	1.44 µM	6.3 µM
C=CC(C)(O)/C=C/C=C(\C)C(CC1OC1(C)C)OC(=O)/C(C)=C\C (stereo unspecified)	–	> 100 µM	–	> 100 µM	–	> 100 µM	–	> 100 µM	–	> 100	–	> 100 µM	–	> 100 µM	–	> 100 µM	–	> 100 µM	–	> 100 µM
CC/C=C\C/C=C\C[C@H](O)C/C=C1/C(=O)C=C[C@@H]1C/C=C\CCCC(=O)O	3.54 µM	12.2 µM	2.08 µM	4.5 µM	3.24 µM	> 100 µM	13.6 µM	56.6 µM	16	31.1	3.56 µM	13.9 µM	5.35 µM	19.2 µM	2.94 µM	8.71 µM	10.4 µM	28.6 µM	3.88 µM	20.1 µM
